How the values were obtained:
[1] = molecular target: T1, isolated recombinant JAK1 kinase domain (Homo sapiens, UniProt P23458); assay: JAK1 enzyme assay (Caliper LabChip, Ki); assay type: biochemical; settings: 25 μM ATP; Morrison tight binding model
T1 construct: The activity of the isolated recombinant JAK1 and JAK2 kinase domain was measured
In short: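 Caliper LabChip read-out: fraction of FAM-labeled JAK3-derived peptide converted to phosphopeptide by isolated JAK1/JAK2 kinase domain. Reaction 30 min, 22° C; stopped with EDTA, 50 mM final. Ki via Morrison tight-binding model, Ki=Ki,app/(1+[ATP]/Km,app).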

LRRK2 = LRRK2 (Homo sapiens, UniProt Q5S007); assay: LRRK2 assay (Life Technologies Adapta, SelectScreen Profiling, IC50); assay type: biochemical; settings: for IC50: 75 μM ATP, 10-point curves, read-out: LRRK 2 IC50; for selectivity for JAK1 over LRRK2 (in words): 5-sulfanylphenyl compound compared with 5-chlorophenyl matched pair; for Ratio (LRRK 2 IC50: JAK1 Ki): selectivity ratio LRRK2 IC50 over JAK1 Ki
Chain of LRRK2 (Q5S007 970-2527 limits assumed): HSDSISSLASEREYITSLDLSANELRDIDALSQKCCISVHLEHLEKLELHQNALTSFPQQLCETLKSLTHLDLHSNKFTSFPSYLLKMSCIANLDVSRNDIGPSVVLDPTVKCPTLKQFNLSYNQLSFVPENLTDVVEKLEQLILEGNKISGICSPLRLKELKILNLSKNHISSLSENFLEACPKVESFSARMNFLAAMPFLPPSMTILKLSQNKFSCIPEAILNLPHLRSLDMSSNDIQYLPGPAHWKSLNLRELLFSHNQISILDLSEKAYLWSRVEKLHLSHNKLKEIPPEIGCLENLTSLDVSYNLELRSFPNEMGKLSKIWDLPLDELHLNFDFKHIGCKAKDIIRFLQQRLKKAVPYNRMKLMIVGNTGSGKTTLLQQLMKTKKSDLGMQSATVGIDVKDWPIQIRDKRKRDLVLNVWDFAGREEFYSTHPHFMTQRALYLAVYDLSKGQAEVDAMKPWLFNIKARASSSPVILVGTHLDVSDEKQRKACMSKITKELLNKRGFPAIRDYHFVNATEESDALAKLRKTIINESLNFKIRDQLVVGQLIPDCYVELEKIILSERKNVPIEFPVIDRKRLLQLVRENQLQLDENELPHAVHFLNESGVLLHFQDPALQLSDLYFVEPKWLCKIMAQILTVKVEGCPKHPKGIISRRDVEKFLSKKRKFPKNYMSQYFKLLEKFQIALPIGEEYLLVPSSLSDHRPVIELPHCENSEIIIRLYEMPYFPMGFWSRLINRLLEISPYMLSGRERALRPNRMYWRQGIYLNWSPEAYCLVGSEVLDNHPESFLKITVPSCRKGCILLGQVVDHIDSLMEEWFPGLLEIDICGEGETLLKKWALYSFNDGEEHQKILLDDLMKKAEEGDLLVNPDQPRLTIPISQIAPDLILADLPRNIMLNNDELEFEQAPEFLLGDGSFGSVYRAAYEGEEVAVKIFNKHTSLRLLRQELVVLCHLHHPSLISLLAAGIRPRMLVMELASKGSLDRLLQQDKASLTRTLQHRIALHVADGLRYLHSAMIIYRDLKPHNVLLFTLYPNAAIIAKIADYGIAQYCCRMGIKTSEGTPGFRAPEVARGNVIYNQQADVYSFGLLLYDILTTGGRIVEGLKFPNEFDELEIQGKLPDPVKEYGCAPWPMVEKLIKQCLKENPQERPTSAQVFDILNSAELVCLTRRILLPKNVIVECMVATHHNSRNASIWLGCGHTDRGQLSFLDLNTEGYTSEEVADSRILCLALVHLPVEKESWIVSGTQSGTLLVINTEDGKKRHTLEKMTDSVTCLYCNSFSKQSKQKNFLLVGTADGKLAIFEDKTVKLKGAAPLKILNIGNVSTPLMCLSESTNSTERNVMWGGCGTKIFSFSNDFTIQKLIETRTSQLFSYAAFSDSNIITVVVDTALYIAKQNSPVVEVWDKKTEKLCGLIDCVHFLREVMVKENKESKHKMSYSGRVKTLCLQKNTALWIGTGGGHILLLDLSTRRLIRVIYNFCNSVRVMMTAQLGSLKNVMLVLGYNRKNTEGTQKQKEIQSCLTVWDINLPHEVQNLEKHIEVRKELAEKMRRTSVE

T1 sequence (P23458 875-1153 limits assumed): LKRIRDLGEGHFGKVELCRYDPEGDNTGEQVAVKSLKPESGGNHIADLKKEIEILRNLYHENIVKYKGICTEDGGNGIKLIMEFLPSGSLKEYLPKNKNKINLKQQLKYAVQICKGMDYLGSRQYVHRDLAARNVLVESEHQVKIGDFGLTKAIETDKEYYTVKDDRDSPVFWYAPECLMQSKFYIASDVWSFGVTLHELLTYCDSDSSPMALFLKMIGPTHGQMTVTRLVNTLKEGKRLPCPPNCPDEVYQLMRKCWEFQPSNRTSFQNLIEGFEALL

| Compound | Ki [1] [µM] | IC50 (LRRK2) [µM] | selectivity for JAK1 over LRRK2 (in words) (LRRK2) | Ratio (LRRK 2 IC50: JAK1 Ki) (LRRK2) |
| --- | --- | --- | --- | --- |
| COC(=O)N1CCN(CC2CCN(C(=O)Cn3cc(NC(=O)c4cnn5cccnc45)c(-c4cc(SC)ccc4OC(F)F)n3)CC2)CC1 [J] | 0.0003 | 2.45 | high degree of JAK1 over LRRK2 selectivity | 8167 |
| CSc1ccc(OC(F)F)c(-c2nn(CC(=O)N3CCC(N4CCC[C@@H](C#N)C4)CC3)cc2NC(=O)c2cnn3cccnc23)c1 [K] | 0.0002 | 1.7 | high degree of JAK1 over LRRK2 selectivity | 8500 |
| CSc1ccc(OC(F)F)c(-c2nn(CC(=O)N3CCC(CN4CCN(CC(=O)N(C)C)CC4)CC3)cc2NC(=O)c2cnn3cccnc23)c1 [L] | 0.00031 | 2 | high degree of JAK1 over LRRK2 selectivity | 6453 |
| CSc1ccc(OC(F)F)c(-c2nn(CC(=O)N3CCC(NCC(C)(C)C#N)CC3)cc2NC(=O)c2cnn3cccnc23)c1 [M] | 0.0002 | 3.35 | high degree of JAK1 over LRRK2 selectivity | 16750 |
| CSc1ccc(OC(F)F)c(-c2nn(CC(=O)N3CCC(N4CCOCC4)CC3)cc2NC(=O)c2cnn3cccnc23)c1 [N] | 0.00029 | 1.85 | high degree of JAK1 over LRRK2 selectivity | 6379 |
